Data on 14 compounds can be found in patent US20070225308A1, “2-Amino Quinazoline Derivative” (Kyowa Hakko Kogyo Co.,Ltd., priority 2004, published 2007).

Test system in the first series: not given
Assay: not given
Conditions: not given
For the compound `CNc1ncc2c(-c3cccc(Cl)c3)cc(-c3ccc(CCC(=O)O)cc3)c(OC)c2n1` [Compound 55, 7-[4(2-Carboxyethyl)phenyl]-5-(3-chlorophenyl)-8-methoxy-2-(methylamino)quinazoline], the melting point fell in the range of 208 to 213 °C.
As for `CNc1ncc2c(-c3cccc(Cl)c3)cc(-c3cccc(CC(=O)O)c3)c(OC)c2n1` [Compound 59, 7-[3-(Carboxymethyl)phenyl]-5-(3-chlorophenyl)-8-methoxy-2-(methylamino)quinazoline], the melting point lay in the range of 258 to 261 °C.
The compound `CNc1ncc2c(-c3cccc(Cl)c3)cc(/C=C/C(=O)O)c(OC)c2n1` [Compound 95, 7-[E-(2-carboxyethenyl)]-5-(3-chlorophenyl)-8-methoxy-2-(methylamino)quinazoline] gave a melting point of 291 to 295 °C.
Same read-out and setting: the result for `CNc1ncc2c(-c3cccc(Cl)c3)cc(-c3ccc(C(=O)O)cc3)c(O)c2n1` [Compound 112, 7-(4-Carboxyphenyl)-5-(3-chlorophenyl)-8-hydroxy-2-(methylamino)quinazoline] reads 291 to 296 °C.

The target in another series is T1, recombinant human PDE-IV (HSPDE4A) (Homo sapiens, UniProt P27815).
T1 construct: made in house; host or cells: Sf9 insect cells
T1 sequence (P27815 whole entry): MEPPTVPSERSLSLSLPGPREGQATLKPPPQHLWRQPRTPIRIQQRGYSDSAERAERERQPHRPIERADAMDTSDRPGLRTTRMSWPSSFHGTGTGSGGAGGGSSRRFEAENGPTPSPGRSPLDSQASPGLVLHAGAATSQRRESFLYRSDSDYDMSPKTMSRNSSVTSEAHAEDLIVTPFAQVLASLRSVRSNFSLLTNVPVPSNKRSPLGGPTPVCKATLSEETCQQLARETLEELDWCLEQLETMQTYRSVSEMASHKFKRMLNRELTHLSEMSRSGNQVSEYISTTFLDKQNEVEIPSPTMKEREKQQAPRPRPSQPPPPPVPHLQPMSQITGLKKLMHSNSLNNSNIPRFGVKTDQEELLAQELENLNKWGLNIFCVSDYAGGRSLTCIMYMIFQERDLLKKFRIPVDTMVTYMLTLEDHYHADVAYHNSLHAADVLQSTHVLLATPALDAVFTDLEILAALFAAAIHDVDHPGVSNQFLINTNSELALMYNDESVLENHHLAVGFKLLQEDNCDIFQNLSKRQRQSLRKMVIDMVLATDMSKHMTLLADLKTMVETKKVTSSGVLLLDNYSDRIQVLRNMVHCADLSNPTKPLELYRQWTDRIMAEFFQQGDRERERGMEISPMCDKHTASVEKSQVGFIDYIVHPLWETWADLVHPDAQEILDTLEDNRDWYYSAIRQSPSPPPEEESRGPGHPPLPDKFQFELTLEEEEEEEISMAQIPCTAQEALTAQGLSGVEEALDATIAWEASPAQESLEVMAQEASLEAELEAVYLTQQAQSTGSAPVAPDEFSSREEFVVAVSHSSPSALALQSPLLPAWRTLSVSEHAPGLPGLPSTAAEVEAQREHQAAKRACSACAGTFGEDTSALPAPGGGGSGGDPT
Put plainly: Recombinant Human PDE-IV-Inhibiting Test. The format is biochemical. As to conditions: at the concentration of 0.1 μmol/L; substrate [3H]cAMP 1 μmol/L; read-out: enzyme-inhibitory activity. As for the experimental part: Recombinant Human PDE-IV-Inhibiting Test
A human PDE cDNA (HSPDE4A) was isolated from HL-60 cells. An expected amino acid sequence thereof is the same as the sequence (HSPDE4A4) reported by Bolger G., et al (Mol. Cell. Biol., 1993, Vol. 13, p. 6558). The recombinant protein was expressed, using Sf9 insect cells. The PDE activity was measured according to the following two-step process, based on the method by Kincid R. L. and Manganiello V. C. (Method. Enzymol., 1988, Vol. 159, p. 457). [^3H]cAMP (final concentration: 1 μmol/L) was used as the substrate. The reaction was performed in a standard, mixture containing N,N-bis(2-hydroxyethyl)-2-aminoethanesulfonic acid (50 mmol/L, pH 7.2), magnesium chloride (1 mmol/L) and soybean trypsin inhibitor (0.1 mg/mL). The reaction was started by the addition of enzyme, and the reaction mixture was incubated at 30° C. for 10 to 30 minutes. The reaction was stopped by hydrochloric acid, and the formed 5′-AMP was completely decomposed by 5′-nucleotidase. The resulting mixture was treated with chromatography of DEAE-Sephadex A-25, and the eluted [^3H]adenosine was counted with a scintillation counter. The test compounds were dissolved in DMSO, and added to the system (concentration 1.7%).
For `COc1c(-c2ccc(C(=O)O)cc2)cc(-c2cccc([N+](=O)[O-])c2)c2cnc(N)nc12` [Compound 12, 2-Amino-7-(4-carboxyphenyl)-8-methoxy-5-(3-nitrophenyl)quinazoline], the inhibition at 0.1 µM was at least 50%.
For `COc1c(-c2ccc(C(=O)O)cc2)cc(-c2cccc(Cl)c2)c2cnc(N)nc12` [Compound 13, 2-Amino-7-(4-carboxyphenyl)-5-(3-chlorophenyl)-8-methoxyquinazoline], the inhibition at 0.1 µM was at least 50%.
Still for that read-out and setting: the result for `COc1c(-c2ccc(C(=O)O)cc2)cc(-c2cccc([N+](=O)[O-])c2)c2cnc(N(C)C)nc12` [Compound 14, 7-(4-Carboxyphenyl)-2-dimethylamino-8-methoxy-5-(3-nitrophenyl)quinazoline] reads at least 50%; that for `COc1c(-c2ccc(C(=O)O)cc2)cc(-c2cccc(Cl)c2)c2cnc(N(C)C)nc12` [Compound 15, 7-(4-Carboxyphenyl)-5-(3-chlorophenyl)-2-dimethylamino-8-methoxyquinazoline], at least 50%; that for `CNc1ncc2c(-c3cccc(Cl)c3)cc(-c3ccc(C(=O)O)cc3)c(OC)c2n1` [Compound 18, 7-(4-Carboxyphenyl)-5-(3-chlorophenyl)-8-methoxy-2-(methylamino)quinazoline], at least 50%.
The same measure, in the same setting: under `CNc1ncc2c(-c3cccc(C#N)c3)cc(-c3ccc(C(=O)O)cc3)c(OC)c2n1` [Compound 19, 7-(4-Carboxyphenyl)-5-(3-cyanophenyl)-8-methoxy-2-(methylamino)quinazoline] stands at least 50%.
Regarding `CNc1ncc2c(-c3cncc(Cl)c3)cc(-c3ccc(C(=O)O)cc3)c(OC)c2n1` [Compound 20, 7-(4-Carboxyphenyl)-5-(5-chloropyridine-3-yl)-8-methoxy-2-(methylamino)quinazoline], the inhibition at 0.1 µM was at least 50%.
Same read-out and setting: under `CNc1ncc2c(-c3cccc(Cl)c3)cc(CCC(=O)O)c(OC)c2n1` [Compound 35, 7-(2-Carboxyethyl)-5-(3-chlorophenyl)-8-methoxy-2-(methylamino)quinazoline] stands at least 50%; under `COc1c(-c2cccc(C(=O)O)c2)cc(-c2cccc(Cl)c2)c2cnc(N(C)C)nc12` [Compound 37, 7-(3-Carboxyphenyl)-5-(3-chlorophenyl)-2-dimethylamino-8-methoxyquinazoline], at least 50%.
With `COc1c(C2=CCNCC2)cc(-c2cccc(Cl)c2)c2cnc(N(C)C)nc12` [Compound 43, 5-(3-Chlorophenyl)-2-dimethylamino-8-methoxy-7-(1,2,5,6-tetrahydropyridine-4-yl)quinazoline], the inhibition at 0.1 µM was at least 50%.
